These results are taken from ChEMBL document CHEMBL1201862, “PubChem BioAssay data set” (2004).

Among the test systems are CCRF-CEM; HCC 2998; HCT-116; HCT-15; HL-60; HOP-62; M14; MDA-MB-231; NCI-H23; NCI-H460; OVCAR-5; PC-3; RPMI-8226; SK-MEL-28; SNB-19; T47D; U-251; UACC-62; SK-MEL-2.
Common to all, as to assay: NCI anticancer screen, dose series, 48 h

Molecules are shown by their SMILES.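 Results reflect a 48-hour exposure of cells in 96-well plates to compound at five concentrations. GI50 marks 50% less growth.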 Activity calls are given as the source filed them. Rule as the data show it: active = GI50 up to about 1.1 µM and inactive = higher. A value given as a limit tells only on which side of the number the result lay.

As to `C=CC(C)(C)/C(=C\CO[Si](C(C)C)(C(C)C)C(C)C)C(=O)N(C)c1ccccc1I`, the GI50 in the assay with CCRF-CEM was 5.79 µM (inactive); with HCC 2998, 13.2 µM (inactive); with HCT-116, 3.13 µM (inactive); in the assay on HCT-15, 16.4 µM; with HL-60, 1.73 µM (inactive); with HOP-62 it was 16.3 µM (inactive). Further, the GI50 with M14 was 15.8 µM (inactive); in the assay on MDA-MB-231 it was 13.3 µM (inactive); with NCI-H23 it was 11 µM (inactive); in the assay with NCI-H460 it was 13.6 µM (inactive); in the assay with OVCAR-5 it was 13.9 µM (inactive); in the assay on PC-3 it was 2.71 µM (inactive). Also, the GI50 was 2.96 µM (inactive) in the assay with RPMI-8226; 14.2 µM (inactive) in the assay with SK-MEL-28; 14.5 µM (inactive) in the assay with SNB-19; 9.98 µM (inactive) in the assay with T47D; 11.5 µM (inactive) with U-251; 13.1 µM (inactive) with UACC-62.

As to `Cc1cn(CCCC2=NCCCN2)c(=O)[nH]c1=O`, the GI50 in the assay with CCRF-CEM was > 100 µM (inactive); in the assay with HCC 2998, > 100 µM (inactive); in the assay with HCT-116, > 100 µM (inactive); in the assay with HCT-15, over 100 µM; in the assay with HOP-62, > 100 µM (inactive); in the assay on M14 it was > 100 µM (inactive). Moreover, the GI50 was > 100 µM (inactive) with MDA-MB-231; > 100 µM (inactive) in the assay on NCI-H23; > 100 µM (inactive) in the assay on NCI-H460; > 100 µM (inactive) with OVCAR-5; > 100 µM (inactive) in the assay with PC-3; 79.1 µM (inactive) in the assay with RPMI-8226. Further, the GI50 in the assay on SK-MEL-28, in the assay with SK-MEL-2, with SNB-19, in the assay on T47D, in the assay on U-251 and in the assay with UACC-62 was > 100 µM (inactive) each time.

`CCC(c1ccc(N(C)C)cc1)C1NC(=S)NC1=O` (stereo not given): the GI50 with CCRF-CEM was 48.9 µM (inactive); in the assay with HCC 2998 it was > 100 µM (inactive); with HCT-116, 47 µM (inactive); in the assay with HCT-15 it was 40.2 µM; in the assay on HL-60, 17.5 µM (inactive); with M14, 74.8 µM (inactive). In addition, the GI50 in the assay with MDA-MB-231 is > 100 µM (inactive); in the assay on NCI-H23, > 100 µM (inactive); in the assay on NCI-H460, > 100 µM (inactive); with OVCAR-5 it was > 100 µM (inactive); with RPMI-8226 it was 46 µM (inactive); in the assay with SK-MEL-28 it was > 100 µM (inactive). Also, the GI50 in the assay on SNB-19 is > 100 µM (inactive); in the assay with T47D, 78.3 µM (inactive); with U-251 it was 86.7 µM (inactive).

As for `Cc1ccc(S(=O)(=O)N/C(=C\C=C\c2ccccc2)C(=O)C(C)(C)C)cc1`, the GI50 with CCRF-CEM was > 100 µM (inactive); in the assay with HCC 2998, > 100 µM (inactive); in the assay with HCT-116, > 100 µM (inactive); with HCT-15, over 100 µM; in the assay on HL-60, > 100 µM (inactive); in the assay with HOP-62, 19.5 µM (inactive). Further, the GI50 is > 100 µM (inactive) in the assay on M14; 29.9 µM (inactive) in the assay with MDA-MB-231; 59.4 µM (inactive) in the assay with NCI-H23; > 100 µM (inactive) in the assay with NCI-H460; > 100 µM (inactive) in the assay on OVCAR-5; 75.2 µM (inactive) with PC-3. For the same molecule, the GI50 in the assay on RPMI-8226 is 0.492 µM (active); in the assay with SK-MEL-28 it was > 100 µM (inactive); in the assay with SK-MEL-2, > 100 µM (inactive); with SNB-19 it was 55.5 µM (inactive); with T47D it was 85.1 µM (inactive); in the assay with U-251, 63.1 µM (inactive).

For `Cc1ccccc1/N=C/c1ccc(N(CCC#N)S(=O)(=O)c2ccccc2)cc1`, the GI50 in the assay on CCRF-CEM was > 100 µM (inactive); with HCC 2998, > 100 µM (inactive); in the assay with HCT-116, > 100 µM (inactive); in the assay on HCT-15 it was over 100 µM; in the assay with HL-60 it was 32.4 µM (inactive); with HOP-62, > 100 µM (inactive). The GI50 in the assay with M14, with NCI-H23, in the assay with NCI-H460, in the assay on OVCAR-5, in the assay with RPMI-8226 and with SK-MEL-28 was > 100 µM (inactive) in each case. In addition, the GI50 in the assay on SK-MEL-2, with SNB-19, in the assay with U-251 and in the assay with UACC-62 was > 100 µM (inactive) throughout.
